Results as given in the NIST ThermoML archive (doi:10.1021/je900404r).
Numbers after ± are expanded uncertainties.

Assays:
[1] = 101 kPa, Liquid, Vibrating tube method
[2] = xn = mol fraction of the nth substance listed; conditions: 101 kPa, Liquid, Vibrating tube method

CC(Cl)(Cl)Cl [1,1,1-trichloroethane]
[1]
Conditions	mass density [kg/m3]
288.15 K	1344.95 ± 0.44
298.15 K	1328.27 ± 0.44
308.15 K	1311.45 ± 0.43
318.15 K	1294.47 ± 0.43

CC(Cl)(Cl)Cl [1,1,1-trichloroethane] + O=C1CCCCC1
mass density [kg/m3], [2]
Conditions	x1 = 0.1151	x1 = 0.2288	x1 = 0.3155	x1 = 0.4163	x1 = 0.5167	x1 = 0.6059	x1 = 0.7081	x1 = 0.8062	x1 = 0.8979	x1 = 1
288.15 K	996.74 ± 0.43	1041.75 ± 0.44	1076.19 ± 0.44	1116.3 ± 0.44	1156.17 ± 0.44	1191.52 ± 0.45	1231.85 ± 0.45	1270.3 ± 0.45	1305.81 ± 0.46	1344.95 ± 0.44
298.15 K	987.13 ± 0.43	1031.43 ± 0.43	1065.28 ± 0.44	1104.68 ± 0.44	1143.81 ± 0.44	1178.45 ± 0.44	1217.94 ± 0.45	1255.52 ± 0.45	1290.16 ± 0.46	1328.27 ± 0.44
308.15 K	977.49 ± 0.43	1021.06 ± 0.43	1054.33 ± 0.43	1093.01 ± 0.44	1131.39 ± 0.44	1165.33 ± 0.44	1203.95 ± 0.45	1240.64 ± 0.45	1274.41 ± 0.45	1311.45 ± 0.43
318.15 K	967.81 ± 0.43	1010.65 ± 0.43	1043.33 ± 0.43	1081.28 ± 0.44	1118.9 ± 0.44	1152.12 ± 0.44	1189.86 ± 0.44	1225.64 ± 0.45	1258.51 ± 0.45	1294.47 ± 0.43

ClC(Cl)C(Cl)Cl [1,1,2,2-tetrachloroethane]
[1]
Conditions	mass density [kg/m3]
288.15 K	1604.75 ± 0.48
298.15 K	1589.18 ± 0.48
308.15 K	1573.57 ± 0.48
318.15 K	1557.94 ± 0.47

ClC(Cl)C(Cl)Cl [1,1,2,2-tetrachloroethane] + O=C1CCCCC1
mass density [kg/m3], [2]
Conditions	x1 = 0.1147	x1 = 0.2121	x1 = 0.3045	x1 = 0.4052	x1 = 0.4996	x1 = 0.5909	x1 = 0.6868	x1 = 0.782	x1 = 0.8798	x1 = 1
288.15 K	1029.34 ± 0.49	1094.87 ± 0.49	1156.78 ± 0.49	1223.8 ± 0.5	1286.07 ± 0.5	1345.8 ± 0.51	1407.73 ± 0.51	1468.5 ± 0.52	1530.11 ± 0.53	1604.75 ± 0.48
298.15 K	1019.79 ± 0.49	1084.77 ± 0.49	1146.13 ± 0.49	1212.52 ± 0.49	1274.18 ± 0.5	1333.31 ± 0.5	1394.58 ± 0.51	1454.64 ± 0.52	1515.52 ± 0.53	1589.18 ± 0.48
308.15 K	1010.2 ± 0.48	1074.62 ± 0.49	1135.43 ± 0.49	1201.2 ± 0.49	1262.26 ± 0.5	1320.77 ± 0.5	1381.38 ± 0.51	1440.76 ± 0.52	1500.89 ± 0.52	1573.57 ± 0.48
318.15 K	1000.58 ± 0.48	1064.44 ± 0.48	1124.7 ± 0.49	1189.84 ± 0.49	1250.3 ± 0.49	1308.2 ± 0.5	1368.14 ± 0.51	1426.83 ± 0.51	1486.23 ± 0.52	1557.94 ± 0.47

ClCCCl [1,2-dichloroethane]
[1]
Conditions	mass density [kg/m3]
288.15 K	1260.01 ± 0.43
298.15 K	1245.48 ± 0.42
308.15 K	1230.83 ± 0.42
318.15 K	1216.04 ± 0.42

ClCCCl [1,2-dichloroethane] + O=C1CCCCC1
mass density [kg/m3], [2]
Conditions	x1 = 0.1142	x1 = 0.2318	x1 = 0.3197	x1 = 0.4227	x1 = 0.519	x1 = 0.6155	x1 = 0.7061	x1 = 0.8134	x1 = 0.9145	x1 = 1
288.15 K	978.81 ± 0.42	1008.61 ± 0.42	1032.1 ± 0.42	1061.02 ± 0.42	1089.5 ± 0.43	1119.7 ± 0.43	1149.67 ± 0.44	1187.43 ± 0.44	1225.5 ± 0.45	1260.01 ± 0.43
298.15 K	969.5 ± 0.42	998.88 ± 0.42	1022 ± 0.42	1050.47 ± 0.42	1078.46 ± 0.43	1108.12 ± 0.43	1137.52 ± 0.43	1174.53 ± 0.44	1211.76 ± 0.45	1245.48 ± 0.42
308.15 K	960.16 ± 0.42	989.1 ± 0.42	1011.86 ± 0.42	1039.86 ± 0.42	1067.36 ± 0.42	1096.48 ± 0.43	1125.3 ± 0.43	1161.53 ± 0.44	1197.92 ± 0.44	1230.83 ± 0.42
318.15 K	950.78 ± 0.42	979.28 ± 0.42	1001.67 ± 0.42	1029.19 ± 0.42	1056.19 ± 0.42	1084.75 ± 0.43	1112.98 ± 0.43	1148.42 ± 0.44	1183.96 ± 0.44	1216.04 ± 0.42

ClCCCCl [1,3-dichloropropane] + O=C1CCCCC1
mass density [kg/m3], [2]
Conditions	x1 = 0.1276	x1 = 0.227	x1 = 0.3268	x1 = 0.4189	x1 = 0.514	x1 = 0.6112	x1 = 0.7147	x1 = 0.8103	x1 = 0.8979	x1 = 1
288.15 K	979.76 ± 0.41	1001.99 ± 0.41	1024.79 ± 0.42	1046.27 ± 0.42	1068.86 ± 0.42	1092.38 ± 0.42	1118.03 ± 0.42	1142.26 ± 0.43	1164.89 ± 0.43	1191.93 ± 0.42
298.15 K	970.5 ± 0.41	992.46 ± 0.41	1014.95 ± 0.41	1036.15 ± 0.42	1058.41 ± 0.42	1081.63 ± 0.42	1106.86 ± 0.42	1130.71 ± 0.42	1152.99 ± 0.43	1179.58 ± 0.42
308.15 K	961.22 ± 0.41	982.9 ± 0.41	1005.09 ± 0.41	1025.99 ± 0.42	1047.94 ± 0.42	1070.82 ± 0.42	1095.64 ± 0.42	1119.11 ± 0.42	1141.03 ± 0.43	1167.16 ± 0.42
318.15 K	951.9 ± 0.41	973.3 ± 0.41	995.19 ± 0.41	1015.78 ± 0.41	1037.41 ± 0.42	1059.94 ± 0.42	1084.36 ± 0.42	1107.45 ± 0.42	1128.99 ± 0.42	1154.67 ± 0.41
